# Data published in US9255100B2 (BAYER INTELLECTUAL PROPERTY GMBH, priority 2010, dated 2016).
# Molecular target: T1, N-terminally GST-tagged human full length recombinant Mps-1 kinase (Homo sapiens, UniProt P33981)
# T1 construct: N-terminally GST-tagged human full length recombinant Mps-1 kinase; purchased Invitrogen, Karslruhe, Germany PV4071
# T1 sequence (P33981 1-857): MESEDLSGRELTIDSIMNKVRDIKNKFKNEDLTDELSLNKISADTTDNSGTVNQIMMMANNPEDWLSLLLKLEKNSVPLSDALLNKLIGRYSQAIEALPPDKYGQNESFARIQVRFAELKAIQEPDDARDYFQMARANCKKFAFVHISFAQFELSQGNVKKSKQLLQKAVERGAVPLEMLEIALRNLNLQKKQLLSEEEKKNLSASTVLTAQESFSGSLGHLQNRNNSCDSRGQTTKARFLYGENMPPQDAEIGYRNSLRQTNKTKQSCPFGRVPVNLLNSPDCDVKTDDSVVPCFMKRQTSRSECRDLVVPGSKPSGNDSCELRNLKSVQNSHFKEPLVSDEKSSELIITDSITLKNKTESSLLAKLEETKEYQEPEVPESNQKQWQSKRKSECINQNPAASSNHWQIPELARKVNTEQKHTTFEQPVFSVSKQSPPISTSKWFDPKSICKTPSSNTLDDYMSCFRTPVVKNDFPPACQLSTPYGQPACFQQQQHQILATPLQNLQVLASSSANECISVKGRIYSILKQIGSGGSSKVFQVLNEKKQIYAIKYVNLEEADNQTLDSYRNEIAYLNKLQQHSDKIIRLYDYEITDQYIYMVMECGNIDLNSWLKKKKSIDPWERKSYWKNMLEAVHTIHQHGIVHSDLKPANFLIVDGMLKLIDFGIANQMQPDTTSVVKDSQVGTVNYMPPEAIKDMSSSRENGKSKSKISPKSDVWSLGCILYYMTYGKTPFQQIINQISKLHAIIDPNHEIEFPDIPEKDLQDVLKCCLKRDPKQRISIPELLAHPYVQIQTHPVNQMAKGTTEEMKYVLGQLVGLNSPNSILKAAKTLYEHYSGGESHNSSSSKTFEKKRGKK
# Assay: Mps-1 kinase assay (TR-FRET)
# Assay type: biochemical
# Details: Mps1 IC50 [nM], 10 μM ATP, 1 μM peptide substrate, 60 min at 22° C.
# In short: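 Inhibition of Mps-1 (N-terminal GST fusion, full length) toward a biotinylated peptide is read as Eu-to-XLent TR-FRET. Enzyme level, around 1 nM final, follows lot activity.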
row,Structure (SMILES),IC50 [nM]
1,"Cc1cc(-c2cnc3c(NCCC(F)(F)F)cc(S(=O)(=O)c4ccccc4)nn23)ccc1C(=O)NC1CC1 [Example 212, N-cyclopropyl-2-methyl-4-{6-(phenylsulfonyl)-8-[(3,3,3-trifluoropropyl)amino]imidazo[1,2-b]pyridazin-3-yl}benzamide]",< 1
2,"Cc1cc(-c2cnc3c(NCC4CNC4)cc(Oc4cncc(F)c4)nn23)ccc1C(=O)NC1CC1 [Example 544, 4-{8-[(azetidin-3-ylmethyl)amino]-6-[(5-fluoropyridin-3-yl)oxy]imidazo[1,2-b]pyridazin-3-yl}-N-cyclopropyl-2-methylbenzamide]",1.1
3,"Cc1cc(-c2cnc3c(NCC(C)(C)O)cc(Oc4ccc(N5CCNCC5)cc4)nn23)ccc1C(=O)NC1CC1 [Example 320, N-cyclopropyl-4-{8-[(2-hydroxy-2-methylpropyl)amino]-6-[4-(piperazin-1-yl)phenoxy]imidazo [1,2-b]pyridazin-3-yl}-2-methylbenzamide]",3.3
4,"CSc1cc(NCC(C)(C)O)c2ncc(-c3ccc(C(=O)NC4CC4)c(C)c3)n2n1 [Example 15, N-cyclopropyl-4-{8-[(2-hydroxy-2-methylpropyl)amino]-6-(methylsulfanyl)imidazo[1,2-b]pyridazin-3-yl}-2-methylbenzamide]",21.5
5,"C=Cc1cc(NCC(C)(C)O)c2ncc(-c3ccc(C(=O)NC4CC4)c(C)c3)n2n1 [Example 40, N-cyclopropyl-4-{8-[(2-hydroxy-2-methylpropyl)amino]-6-vinylimidazo[1,2-b]pyridazin-3-yl}-2-methylbenzamide]",111
6,"CNC(=O)c1ccc(-c2cnc3c(NCC4CCOCC4)cc(Oc4ccc(F)c(F)c4)nn23)cc1C [Example 567, 4-{6-(3,4-difluorophenoxy)-8-[(tetrahydro-2H-pyran-4-ylmethyl)amino]imidazo[1,2-b]pyridazin-3-yl}-N,2-dimethylbenzamide]",< 1
7,"CCNC(=O)c1ccc(-c2cnc3c(NCCN4CCOCC4)cc(Oc4ccc(F)c(F)c4)nn23)cc1C [Example 588, 4-[6-(3,4-difluorophenoxy)-8-{[2-(morpholin-4-yl)ethyl]amino}imidazo[1,2-b]pyridazin-3-yl]-N-ethyl-2-methylbenzamide]",2.2
8,"COc1cc(Nc2cc(NCC(C)(C)O)c3ncc(-c4ccc(C(=O)NC5CC5)c(C)c4)n3n2)ccc1F [Example 400, N-cyclopropyl-4-{6-[(4-fluoro-3-methoxyphenyl)amino]-8-[(2-hydroxy-2-methylpropyl)amino]imidazo[1,2-b]pyridazin-3-yl}-2-methylbenzamide]",3.1
9,"CC(C)CNc1cc(-c2cncnc2)nn2c(-c3ccc(C(=O)NC4CC4)cc3)cnc12 [Example 143, N-cyclopropyl-4-{8-[(2-methylpropyl)amino]-6-(pyrimidin-5-yl)imidazo [1,2-b]pyridazin-3-yl} benzamide]",4.7
10,"CC(C)CNc1cc(-c2ccc(-c3ccccc3)cc2)nn2c(-c3ccc(C(=O)NC4CC4)cc3)cnc12 [Example 130, 4-{6-(Biphenyl-4-yl)-8-[(2-methylpropyl)amino]imidazo[1,2-b]pyridazin-3-yl}-N-cyclopropylbenzamide]",5.9
11,"COc1cccc(-c2cc(NCC(C)C)c3ncc(-c4ccc(C(=O)NC5CC5)cc4)n3n2)c1 [Example 125, N-cyclopropyl-4-{6-(3-methoxyphenyl)-8-[(2-methylpropyl)amino]imidazo[1,2-b]pyridazin-3-yl}benzamide]",3.8
12,"Cn1nccc1-c1cc(NC[C@H](O)[C@H]2COC(C)(C)O2)c2ncc(-c3ccc(C(=O)NC4CC4)cc3)n2n1 [Example 192, N-cyclopropyl-4-[8-({(2S)-2-[(4R)-2,2-dimethyl-1,3-dioxolan-4-yl]-2-hydroxyethyl}amino)-6-(1-methyl-1H-pyrazol-5-yl)imidazo[1,2-b]pyridazin-3-yl]benzamide]",21.5
13,"Cc1cc(-c2cnc3c(NCC(C)(C)O)cc(Sc4cnccn4)nn23)ccc1C(=O)NC1CC1 [Example 412, N-cyclopropyl-4-{8-[(2-hydroxy-2-methylpropyl)amino]-6-(pyrazin-2-ylsulfanyl)imidazo[1,2-b]pyridazin-3-yl}-2-methylbenzamide]",19.2
14,"CNc1cc(Oc2cncc(F)c2)nn2c(-c3ccc(C(=O)NC4CC4)c(C)c3)cnc12 [Example 533, N-cyclopropyl-4-{6-[(5-fluoropyridin-3-yl)oxy]-8-(methylamino)imidazo [1,2-b]pyridazin-3-yl}-2-methylbenzamide]",1.2

# Continued by falling IC50, values first:
row,IC50 [nM],Structure (SMILES)
1,0.8,"Cc1cc(-c2cnc3c(NCC(C)(C)O)cc(SC4CCCCC4)nn23)ccc1C(=O)NC1CC1 [Example 172, 4-{6-(cyclohexylsulfanyl)-8-[(2-hydroxy-2-methylpropyl)amino]imidazo[1,2-b]pyridazin-3-yl}-N-cyclopropyl-2-methylbenzamide]"
2,0.6,"CNc1cc(Oc2cc(F)ccc2C)nn2c(-c3ccc(C(=O)NC4CC4)c(C)c3)cnc12 [Example 530, N-cyclopropyl-4-[6-(5-fluoro-2-methylphenoxy)-8-(methylamino)imidazo [1,2-b]pyridazin-3-yl]-2-methylbenzamide]"
3,0.4,"COc1ccc(C)c(Nc2cc(NCC(C)(C)O)c3ncc(-c4ccc(C(=O)NC5CC5)c(C)c4)n3n2)c1 [Example 349, N-cyclopropyl-4-{8-[(2-hydroxy-2-methylpropyl)amino]-6-[(5-methoxy-2-methylphenyl)amino]imidazo[1,2-b]pyridazin-3-yl}-2-methylbenzamide]"
4,0.4,"Cc1cc(-c2cnc3c(NCC4CCSCC4)cc(Sc4cccc(F)c4)nn23)ccc1C(=O)NC1CC1 [Example 285, N-cyclopropyl-4-{6-[(3-fluorophenyl)sulfanyl]-8-[(tetrahydro-2H-thiopyran-4-ylmethyl)amino]imidazo[1,2-b]pyridazin-3-yl}-2-methylbenzamide]"
5,0.3,"Cc1cc(-c2cnc3c(NCC4CCS(=O)(=O)CC4)cc(Sc4ccccc4)nn23)ccc1C(=O)NC1CC1 [Example 302, N-cyclopropyl-4-[8-{[(1,1-dioxidotetrahydro-2H-thiopyran-4-yl)methyl]amino}-6-(phenylsulfanyl)imidazo[1,2-b]pyridazin-3-yl]-2-methylbenzamide]"
6,0.2,"COc1cccc(Oc2cc(NCCC(F)(F)F)c3ncc(-c4ccc(C(=O)NC5CC5)c(C)c4)n3n2)c1 [Example 225, N-cyclopropyl-4-{6-(3-methoxyphenoxy)-8-[(3,3,3-trifluoropropyl)amino]imidazo[1,2-b]pyridazin-3-yl}-2-methylbenzamide]"
7,0.1,"Cc1ccc(F)cc1Oc1cc(NCC2CNC2)c2ncc(-c3ccc(C(=O)NC4CC4)c(C)c3)n2n1 [Example 545, 4-{8-[(azetidin-3-ylmethyl)amino]-6-(5-fluoro-2-methylphenoxy)imidazo[1,2-b]pyridazin-3-yl}-N-cyclopropyl-2-methylbenzamide]"
8,0.1,"Cc1cc(-c2cnc3c(NCCC(F)(F)F)cc(Nc4ccccc4O)nn23)ccc1C(=O)NC1CC1 [Example 399, N-cyclopropyl-4-{6-[(2-hydroxyphenyl)amino]-8-[(3,3,3-trifluoropropyl)amino]imidazo[1,2-b]pyridazin-3-yl}-2-methylbenzamide]"
